From ChEMBL document CHEMBL1130592, “The synthesis and biological activity of a novel series of diazepine MMP inhibitors” (Bioorg Med Chem Lett, 1998)

Tests used:
Interstitial collagenase = target: T1, Interstitial collagenase (Homo sapiens, UniProt P03956); assay: Inhibition of matrix metalloprotease-1 (MMP-1)
T1 sequence (P03956 whole entry): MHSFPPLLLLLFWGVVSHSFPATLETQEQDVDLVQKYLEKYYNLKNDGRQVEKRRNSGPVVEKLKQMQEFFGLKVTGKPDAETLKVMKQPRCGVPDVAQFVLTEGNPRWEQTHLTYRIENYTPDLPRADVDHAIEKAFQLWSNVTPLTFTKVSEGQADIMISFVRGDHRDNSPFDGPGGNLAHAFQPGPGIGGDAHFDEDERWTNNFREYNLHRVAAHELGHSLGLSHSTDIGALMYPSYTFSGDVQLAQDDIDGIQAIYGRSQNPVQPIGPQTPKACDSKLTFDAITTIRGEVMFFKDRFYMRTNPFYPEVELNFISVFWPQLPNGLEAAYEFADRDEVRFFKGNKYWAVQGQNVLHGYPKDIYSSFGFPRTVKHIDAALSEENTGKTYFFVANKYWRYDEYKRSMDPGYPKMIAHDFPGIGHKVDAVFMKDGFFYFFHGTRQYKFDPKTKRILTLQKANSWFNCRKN

[1] = target: Matrix metalloproteinase-9 (Homo sapiens, UniProt P14780); assay: Inhibition of matrix metalloprotease-9 (MMP-9)
Collagenase 3 = Collagenase 3 (Homo sapiens, UniProt P45452)
Description: Inhibition of matrix metalloprotease-13 (MMP-13)

Matrix metalloproteinase-9, sequence (P14780 whole entry): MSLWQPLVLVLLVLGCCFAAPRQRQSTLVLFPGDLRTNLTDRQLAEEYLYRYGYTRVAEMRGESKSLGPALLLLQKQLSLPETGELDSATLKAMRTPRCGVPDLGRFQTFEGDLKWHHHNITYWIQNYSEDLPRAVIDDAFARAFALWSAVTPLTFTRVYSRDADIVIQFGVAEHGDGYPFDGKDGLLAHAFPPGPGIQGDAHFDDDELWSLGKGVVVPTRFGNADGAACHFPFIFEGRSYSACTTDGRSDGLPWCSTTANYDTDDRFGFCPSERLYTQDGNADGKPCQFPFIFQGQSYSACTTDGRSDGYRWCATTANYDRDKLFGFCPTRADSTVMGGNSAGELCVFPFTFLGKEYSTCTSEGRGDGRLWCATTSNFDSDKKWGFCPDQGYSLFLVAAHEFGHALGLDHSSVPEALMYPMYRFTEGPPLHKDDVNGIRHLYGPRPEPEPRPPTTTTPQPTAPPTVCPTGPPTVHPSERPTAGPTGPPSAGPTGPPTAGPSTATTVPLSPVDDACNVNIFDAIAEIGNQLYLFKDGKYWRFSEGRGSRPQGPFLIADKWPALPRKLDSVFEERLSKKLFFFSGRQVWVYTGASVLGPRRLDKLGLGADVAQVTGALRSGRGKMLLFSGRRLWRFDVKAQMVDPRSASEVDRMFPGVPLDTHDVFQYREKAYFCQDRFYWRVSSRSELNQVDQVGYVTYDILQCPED

SMILES	IC50 (Interstitial collagenase)	IC50 [1]	IC50 (Collagenase 3)
COc1ccc(S(=O)(=O)N2CCCNCC2C(=O)NO)cc1 (stereo unspecified)	91 nM	60 nM	5.1 nM
COc1ccc(S(=O)(=O)N2CCCN(C(=O)OC(C)(C)C)CC2C(=O)NO)cc1 (stereo unspecified)	618 nM	9.1 nM	26 nM
COc1ccc(S(=O)(=O)N2CCCN(C(=O)CNC(=O)OC(C)(C)C)CC2C(=O)NO)cc1 (stereo unspecified)	690 nM	23 nM	16 nM
COc1ccc(S(=O)(=O)N2CCCN(C(=O)c3ccccc3)CC2C(=O)NO)cc1 (stereo unspecified)	45 nM	2 nM	2.2 nM
COc1ccc(S(=O)(=O)N2CCCN(C(=O)c3ccc(OC(F)(F)F)cc3)CC2C(=O)NO)cc1 (stereo unspecified)	128 nM	4 nM	6.2 nM
COc1ccc(S(=O)(=O)N2CCCN(C(=O)N[C@@H](C)c3ccccc3)CC2C(=O)NO)cc1 (stereo partly specified)	312 nM	9.2 nM	10.4 nM
O=C(NO)C1CN(C(=O)c2ccccc2)CCCN1S(=O)(=O)c1ccc(Oc2ccccc2)cc1 (stereo unspecified)	22 nM	1.2 nM	1.3 nM
COc1ccc(S(=O)(=O)N2CCCN(C(=O)c3ccccc3-c3ccccc3)CC2C(=O)NO)cc1 (stereo unspecified)	116 nM	3.3 nM	4.6 nM
COc1ccc(S(=O)(=O)N2CCCN(C(=O)CN)CC2C(=O)NO)cc1 (stereo unspecified)	703 nM	157 nM	46 nM
COc1ccc(S(=O)(=O)N2CCCN(C(=O)C(C)(C)C)CC2C(=O)NO)cc1 (stereo unspecified)	251 nM	4.8 nM	11 nM
COc1ccc(S(=O)(=O)N2CCCN(C(=O)Nc3ccccc3)CC2C(=O)NO)cc1 (stereo unspecified)	309 nM	18 nM	17 nM
COc1ccc(S(=O)(=O)N2CCCN(Cc3ccccc3)CC2C(=O)NO)cc1 (stereo unspecified)	445 nM	31 nM	65 nM
